Here are results for 2 compounds from ChEMBL document CHEMBL3861969, “Acredinone C and the Effect of Acredinones on Osteoclastogenic and Osteoblastogenic Activity” (J Nat Prod, 2016).

Calls of active or inactive are those of the source. The rule behind the calls is not given here.

Data set [1] addresses Mitogen-activated protein kinase 9 (Mus musculus) (UniProt Q9WTU6). Put plainly: Inhibition of RANKL-induced JNK2 phosphorylation in mouse BMDM cells assessed as ratio of phosphorylated JNK2 to JNK2 at 10 uM preincubated for 5 mins followed RANKL/M-CSF addition for 5 mins by Western blot analysis (reference value: 5.2). Type of data set: cell-based.
Data set [2] concerns BMDM. Put plainly: Inhibition of RANKL-induced DC-STAMP mRNA expression in mouse BMDM cells at 10 uM preincubated with cells followed by RANKL addition measured after 2 days by real-time PCR analysis. Format: functional, cell-based.
Data set [3] deals with RAC-alpha serine/threonine-protein kinase (Mus musculus) (UniProt P31750). Put plainly: Inhibition of RANKL-induced AKT phosphorylation in mouse BMDM cells assessed as ratio of phosphorylated AKT to AKT at 10 uM preincubated for 5 mins followed RANKL/M-CSF addition for 5 mins by Western blot analysis (reference value: 2.1). Type of data set: cell-based.
The subject of data set [4] is BMDM. Put plainly: Inhibition of RANKL-induced TRAP mRNA expression in mouse BMDM cells at 10 uM preincubated with cells followed by RANKL addition measured after 2 days by real-time PCR analysis. Type of data set: functional, cell-based.
Data set [5] concerns the target Mitogen-activated protein kinase 1 (Mus musculus) (UniProt P63085). Put plainly: Inhibition of RANKL-induced ERK2 phosphorylation in mouse BMDM cells assessed as ratio of phosphorylated ERK2 to ERK2 at 10 uM preincubated for 5 mins followed RANKL/M-CSF addition for 5 mins by Western blot analysis (reference value: 2.6). Format: cell-based.
In data set [6] the test system is BMDM. Put plainly: Inhibition of RANKL-induced c-Src mRNA expression in mouse BMDM cells at 10 uM preincubated with cells followed by RANKL addition measured after 2 days by real-time PCR analysis. Type of data set: functional, cell-based.
Data set [7] deals with BMDM. Put plainly: Inhibition of RANKL-induced NFATc1 mRNA expression in mouse BMDM cells at 10 uM preincubated with cells followed by RANKL addition measured after 2 days by real-time PCR analysis. Format: functional, cell-based.
The test system of another data set is C2C12. Put plainly: Induction of BMP2-induced osteoblast differentiation in mouse C2C12 cells assessed as increase in ALP mRNA expression at 10 uM preincubated with cells followed by BMP2 addition measured after 3 days by real-time PCR analysis. Format: functional, cell-based.
The target in data set [8] is Mitogen-activated protein kinase 3 (Mus musculus) (UniProt Q63844). Put plainly: Inhibition of RANKL-induced ERK1 phosphorylation in mouse BMDM cells assessed as ratio of phosphorylated ERK1 to ERK1 at 10 uM preincubated for 5 mins followed RANKL/M-CSF addition for 5 mins by Western blot analysis (reference value: 2.9). Type of data set: cell-based.
The target of data set [9] is Mitogen-activated protein kinase 8 (Mus musculus) (UniProt Q91Y86). Put plainly: Inhibition of RANKL-induced JNK1 phosphorylation in mouse BMDM cells assessed as ratio of phosphorylated JNK1 to JNK1 at 10 uM preincubated for 5 mins followed RANKL/M-CSF addition for 5 mins by Western blot analysis (reference value: 3.7). Format: cell-based.
The subject of data set [10] is BMDM. Put plainly: Inhibition of RANKL-induced mouse BMDM cell differentiation assessed as reduction in TRAP activity at 0.1 to 30 uM using p-nitrophenyl phosphate as substrate preincubated for 5 mins followed by RANKL/M-CSF addition measured after 4 days. Type of data set: functional, cell-based.
The species entered for data set [11] is Mus musculus. Put plainly: Cytotoxicity against mouse C2C12 cells assessed as reduction cell viability after 3 days in presence of BMP2 by CCK-8 assay. Format: toxicity, cell-based. Particulars: c2c12, 72 h.
The nature of data set [12]: Inhibition of RANKL-induced c-Fos expression in mouse BMDM cells assessed as ratio of c-Fos to actin at 10 uM preincubated with cells followed RANKL/M-CSF addition measured after 1 day by Western blot analysis (reference value: 6.4). Format: functional.
For data set [13], the species on record is Mus musculus. Put plainly: Cytotoxicity against mouse BMDM cells assessed as reduction in cell viability up to 10 uM after 3 days in presence of M-CSF by CCK-8 assay. Type of data set: toxicity, cell-based. Particulars: 72 h.
Data set [14] concerns the target MAP kinase p38 (Mus musculus) (UniProt P47811+O08911+Q9WUI1+Q9Z1B7). Put plainly: Inhibition of RANKL-induced p38 phosphorylation in mouse BMDM cells assessed as ratio of phosphorylated p38 to p38 at 10 uM preincubated for 5 mins followed RANKL/M-CSF addition for 5 mins by Western blot analysis (reference value: 24.7). Type of data set: cell-based.
Data set [15] relates to BMDM. Put plainly: Inhibition of RANKL-induced cathespin K mRNA expression in mouse BMDM cells at 10 uM preincubated with cells followed by RANKL addition measured after 2 days by real-time PCR analysis. Format: functional, cell-based.
The nature of data set [16]: Inhibition of RANKL-induced NFATc1 expression in mouse BMDM cells assessed as ratio of NFATc1 to actin at 10 uM preincubated with cells followed RANKL/M-CSF addition measured after 1day by Western blot analysis (reference value: 281). Type of data set: functional.
Data set [17] concerns BMDM. Put plainly: Inhibition of RANKL-induced mouse BMDM cell differentiation assessed as TRAP-positive MNCs at 0.1 to 30 uM preincubated for 5 mins followed by RANKL/M-CSF addition measured after 4 days by TRAP-staining based assay. Format: functional.
Data set [18] deals with T1, NF-kappa-B inhibitor alpha (Mus musculus) (UniProt Q9Z1E3).
T1 sequence (whole entry): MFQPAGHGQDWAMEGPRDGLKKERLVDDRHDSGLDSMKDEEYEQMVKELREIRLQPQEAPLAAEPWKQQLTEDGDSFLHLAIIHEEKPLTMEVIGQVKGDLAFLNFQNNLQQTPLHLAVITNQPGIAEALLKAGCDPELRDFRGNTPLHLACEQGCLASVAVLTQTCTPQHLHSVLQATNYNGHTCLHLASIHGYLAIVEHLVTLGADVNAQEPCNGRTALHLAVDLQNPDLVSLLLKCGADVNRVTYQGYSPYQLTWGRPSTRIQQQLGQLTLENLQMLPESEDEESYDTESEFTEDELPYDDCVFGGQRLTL
Put plainly: Inhibition of RANKL-induced IkBalpha phosphorylation in mouse BMDM cells at 10 uM preincubated for 5 mins followed RANKL/M-CSF addition for 5 mins by Western blot analysis. Type of data set: cell-based.

The test system of data set [19] is BMDM. Put plainly: Inhibition of RANKL-induced mouse BMDM cell differentiation assessed as TRAP-positive MNCs at 0.1 to 10 uM preincubated for 5 mins followed by RANKL/M-CSF addition measured after 4 days by TRAP-staining based assay. Type of data set: functional.
The subject of data set [20] is BMDM. Put plainly: Inhibition of RANKL-induced OSCAR mRNA expression in mouse BMDM cells at 10 uM preincubated with cells followed by RANKL addition measured after 2 days by real-time PCR analysis. Format: functional, cell-based.
Data set [21] is filed under the species Mus musculus. Put plainly: Cytotoxicity against mouse BMDM cells assessed as reduction in cell viability at 30 uM after 3 days in presence of M-CSF by CCK-8 assay. Format: toxicity, cell-based. Particulars: 72 h.
A further data set concerns Osteoclast. Put plainly: Inhibition of RANKL-induced mouse BMDM cell differentiation assessed as reduction in TRAP-positive multi-nucleated osteoclast cells preincubated for 5 mins followed by RANKL/M-CSF addition measured after 4 days by light microscopic analysis. Type of data set: functional, cell-based.

Chain of RAC-alpha serine/threonine-protein kinase (Mus musculus) (P31750 whole entry): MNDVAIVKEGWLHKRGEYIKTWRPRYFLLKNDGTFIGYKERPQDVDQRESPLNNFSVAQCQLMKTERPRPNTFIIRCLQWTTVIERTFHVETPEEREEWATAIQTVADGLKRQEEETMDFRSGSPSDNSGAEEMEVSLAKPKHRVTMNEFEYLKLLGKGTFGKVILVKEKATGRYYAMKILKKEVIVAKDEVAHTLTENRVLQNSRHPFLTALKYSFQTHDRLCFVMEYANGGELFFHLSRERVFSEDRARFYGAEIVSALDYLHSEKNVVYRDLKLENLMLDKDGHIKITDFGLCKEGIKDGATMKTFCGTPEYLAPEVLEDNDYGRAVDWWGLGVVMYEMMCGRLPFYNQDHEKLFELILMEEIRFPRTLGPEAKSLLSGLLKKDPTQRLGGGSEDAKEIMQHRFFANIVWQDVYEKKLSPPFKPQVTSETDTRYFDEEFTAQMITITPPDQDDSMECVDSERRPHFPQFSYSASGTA
Chain of Mitogen-activated protein kinase 9 (Mus musculus) (Q9WTU6 whole entry): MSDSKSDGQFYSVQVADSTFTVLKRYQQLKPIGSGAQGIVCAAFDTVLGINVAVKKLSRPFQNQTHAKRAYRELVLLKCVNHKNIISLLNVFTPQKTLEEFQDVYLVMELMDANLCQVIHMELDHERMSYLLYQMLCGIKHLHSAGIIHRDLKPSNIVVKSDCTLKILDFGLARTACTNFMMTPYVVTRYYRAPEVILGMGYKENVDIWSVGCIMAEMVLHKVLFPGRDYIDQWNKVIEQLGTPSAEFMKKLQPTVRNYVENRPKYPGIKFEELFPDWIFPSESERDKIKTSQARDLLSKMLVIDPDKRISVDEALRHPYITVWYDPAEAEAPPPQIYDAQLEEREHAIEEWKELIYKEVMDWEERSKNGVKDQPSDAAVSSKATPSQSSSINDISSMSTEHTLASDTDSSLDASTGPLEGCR
Chain of Mitogen-activated protein kinase 8 (Mus musculus) (Q91Y86 whole entry): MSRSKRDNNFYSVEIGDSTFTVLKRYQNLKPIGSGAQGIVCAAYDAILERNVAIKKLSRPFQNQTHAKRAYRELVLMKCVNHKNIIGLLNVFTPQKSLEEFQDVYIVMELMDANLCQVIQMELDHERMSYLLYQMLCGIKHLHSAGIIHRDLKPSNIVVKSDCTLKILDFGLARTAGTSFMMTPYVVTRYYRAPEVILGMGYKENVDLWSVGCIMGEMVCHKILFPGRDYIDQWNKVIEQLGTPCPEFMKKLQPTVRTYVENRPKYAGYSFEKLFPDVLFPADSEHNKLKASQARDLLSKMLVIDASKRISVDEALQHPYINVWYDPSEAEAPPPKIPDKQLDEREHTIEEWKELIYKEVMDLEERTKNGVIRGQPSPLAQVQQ
Chain of Mitogen-activated protein kinase 1 (Mus musculus) (P63085 whole entry): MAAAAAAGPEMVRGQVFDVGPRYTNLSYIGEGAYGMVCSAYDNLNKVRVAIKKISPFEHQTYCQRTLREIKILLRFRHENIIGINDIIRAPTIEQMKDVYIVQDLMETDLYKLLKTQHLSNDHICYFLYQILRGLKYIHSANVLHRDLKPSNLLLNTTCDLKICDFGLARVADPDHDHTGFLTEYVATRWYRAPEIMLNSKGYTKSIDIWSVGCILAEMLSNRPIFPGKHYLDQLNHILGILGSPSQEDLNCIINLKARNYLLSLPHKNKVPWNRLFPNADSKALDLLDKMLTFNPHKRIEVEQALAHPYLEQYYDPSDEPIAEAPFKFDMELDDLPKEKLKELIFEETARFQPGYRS
Chain of Mitogen-activated protein kinase 3 (Mus musculus) (Q63844 whole entry): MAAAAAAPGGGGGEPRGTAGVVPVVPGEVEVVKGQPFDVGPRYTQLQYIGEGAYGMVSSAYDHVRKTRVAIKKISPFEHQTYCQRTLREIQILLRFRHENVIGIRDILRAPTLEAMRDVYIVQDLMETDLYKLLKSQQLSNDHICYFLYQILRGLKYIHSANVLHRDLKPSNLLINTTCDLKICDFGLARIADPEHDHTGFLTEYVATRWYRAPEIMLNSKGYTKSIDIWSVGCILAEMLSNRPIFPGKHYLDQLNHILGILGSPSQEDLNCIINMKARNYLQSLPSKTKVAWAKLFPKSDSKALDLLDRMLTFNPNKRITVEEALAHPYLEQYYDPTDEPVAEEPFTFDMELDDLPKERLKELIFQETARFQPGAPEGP

As to `COc1cccc(OC)c1C(=O)c1c(O)cc(C)c(OC)c1CC(=O)c1c(OC)c(C)cc(O)c1C(=O)c1c(OC)cccc1OC`, the fold change (FC) in data set [1] came to 4.2; in data set [3] it was 1.1; in data set [5], 1.7; in [8], 2.1; in data set [9], 2.7; in data set [12] it was 3.5. Moreover, the fold change (FC) is 20.2 in data set [14] and 124 in data set [16]. Also, the inhibition entry in the data set with BMDM [2], in the data set on BMDM [4], in the data set with BMDM [6], in the data set on BMDM [7], in the data set on BMDM [10] and in the data set on BMDM [15] was “Active” in each case. Also, the inhibition result (in the data set on BMDM [17]; in data set [18]; in the data set on BMDM [19]; in the data set on BMDM [20]) was “Active” each time. For the same compound, the outcome with C2C12 was Active. Also, the Activity entry in the data set filed under Mus musculus [11] is listed as “Non-Toxic”; in the data set filed under Mus musculus [13] it was “Non-Toxic”; in the data set filed under Mus musculus [21], “Toxic”. In the data set with Osteoclast, the inhibition entry was “Dose-dependent effect”.
In the case of `COc1cccc(OC)c1C(=O)c1c(O)cc(C)c(OC)c1C(=O)Cc1c(OC)c(C)cc2oc3cccc(OC)c3c(=O)c12`, the fold change (FC) in data set [1] was determined as 3.7; in data set [3], 1.7; in [5] it was 2.6; in data set [8], 3.3; in data set [9], 2.2; in [12], 2.4. In addition, the fold change (FC) was 8.2 in [14] and 85 in data set [16]. Moreover, the inhibition result in the data set on BMDM [2], in the data set on BMDM [4], with BMDM [6], with BMDM [7], in the data set on BMDM [10] and in the data set with BMDM [15] was “Active” each time. Further, the inhibition result (in the data set on BMDM [17]; in data set [18]; with BMDM [19]; in the data set on BMDM [20]) was “Active” throughout. The result in the data set with C2C12 was Active. The Activity entry in the data set listed under Mus musculus [11] and in the data set listed under Mus musculus [13] was “Non-Toxic” each time. The inhibition result in the data set with Osteoclast is “Dose-dependent effect”.
